Measurements from patent US8207178B2 (priority 2007, dated 2012).
Read-outs that look alike come from different tables or passages of the source.

What was measured:
Experiment in all cases: microbe, parasite or virus in culture
Format in all cases: cell-based, human immunodeficiency virus type 1 (HIV-1)
HIV-1 Y188L mutant = details: Human immunodeficiency virus 1, HeLa, read-out: EC50 mutant Y188L
HIV-1 K103N-L100I mutant = test system: HIV-1 K103N-L100I mutant
HIV-1 K103N mutant = details: Human immunodeficiency virus 1, HeLa, read-out: EC50 mutant K103N
HIV-1 K103N-Y181C mutant = details: Human immunodeficiency virus 1, HeLa, read-out: EC50 mutant K103N-Y181C
wild type HIV-1 = test system: wild type HIV-1
[1] = Human immunodeficiency virus 1, HeLa, read-out: EC50 mutant K103N-L100I, mutant K103N-L100I
[2] = Human immunodeficiency virus 1, Hela-JC53

Structure (SMILES): Cc1cc(-c2ccncc2)cc(C)c1Oc1nc(Nc2ccc(C#N)cc2)nc2ccn(C)c12 [Example 1, 4-(4-(2,6-Dimethyl-4-(pyridin-4-yl)phenoxy)-5-methyl-5H-pyrrolo[3,2-d]pyrimidin-2-ylamino)benzonitrile]
- EC50 (HIV-1 Y188L mutant): 1 to 10 nM
- EC50 (HIV-1 K103N-L100I mutant; [1]): 1 to 10 nM
- EC50 (HIV-1 K103N mutant): < 1 nM
- EC50 (HIV-1 K103N-Y181C mutant): 1 to 10 nM
- EC50 (wild type HIV-1; [2]): 1 to 10 nM

Structure (SMILES): Cc1cc(-c2ccncc2F)cc(C)c1Oc1nc(Nc2ccc(C#N)cc2)nc2ccn(C)c12 [Example 2, 4-(4-(4-(3-Fluoropyridin-4-yl)-2,6-dimethylphenoxy)-5-methyl-5H-pyrrolo[3,2-d]pyrimidin-2-ylamino) benzonitrile]
- EC50 (HIV-1 Y188L mutant): > 10 nM
- EC50 (HIV-1 K103N-L100I mutant; [1]): 1 to 10 nM
- EC50 (HIV-1 K103N mutant): 1 to 10 nM
- EC50 (HIV-1 K103N-Y181C mutant): 1 to 10 nM
- EC50 (wild type HIV-1; [2]): 1 to 10 nM

Structure (SMILES): Cc1cc(-c2ccnc(F)c2)cc(C)c1Oc1nc(Nc2ccc(C#N)cc2)nc2ccn(C)c12 [Example 3, 4-(4-(4-(2-Fluoropyridin-4-yl)-2,6-dimethylphenoxy)-5-methyl-5H-pyrrolo[3,2-d]pyrimidin-2-ylamino) benzonitrile]
- EC50 (HIV-1 Y188L mutant): > 10 nM
- EC50 (HIV-1 K103N-L100I mutant; [1]): 1 to 10 nM
- EC50 (HIV-1 K103N mutant): 1 to 10 nM
- EC50 (HIV-1 K103N-Y181C mutant): > 10 nM
- EC50 (wild type HIV-1; [2]): 1 to 10 nM

Structure (SMILES): Cc1cc(-c2ccncc2C#N)cc(C)c1Oc1nc(Nc2ccc(C#N)cc2)nc2ccn(C)c12 [Example 5, 4-(4-(2-(4-Cyanophenylamino)-5-methyl-5H-pyrrolo[3,2-d]pyrimidin-4-yloxy)-3,5-dimethylphenyl)nicotinonitrile]
- EC50 (HIV-1 Y188L mutant): > 10 nM
- EC50 (HIV-1 K103N-L100I mutant; read-out: EC50 mutant K103N-L100I, mutant K103N-L100I): < 1 nM
- EC50 (HIV-1 K103N mutant): < 1 nM
- EC50 (HIV-1 K103N-Y181C mutant): 1 to 10 nM
- EC50 (wild type HIV-1): < 1 nM

Structure (SMILES): Cc1cc(-c2ccnc(C#N)c2)cc(C)c1Oc1nc(Nc2ccc(C#N)cc2)nc2ccn(C)c12 [Example 6, 4-(4-(2-(4-Cyanophenylamino)-5-methyl-5H-pyrrolo[3,2-d]pyrimidin-4-yloxy)-3,5-dimethylphenyl)picolinonitrile]
- EC50 (HIV-1 Y188L mutant): > 10 nM
- EC50 (HIV-1 K103N-L100I mutant; [1]): 1 to 10 nM
- EC50 (HIV-1 K103N mutant): 1 to 10 nM
- EC50 (HIV-1 K103N-Y181C mutant): > 10 nM
- EC50 (wild type HIV-1; [2]): 1 to 10 nM

Structure (SMILES): Cc1cnccc1-c1cc(C)c(Oc2nc(Nc3ccc(C#N)cc3)nc3ccn(C)c23)c(C)c1 [Example 7, 4-(4-(2,6-Dimethyl-4-(3-methylpyridin-4-yl)phenoxy)-5-methyl-5H-pyrrolo [3,2-d]pyrmidin-2-ylamino)benzonitrile]
- EC50 (HIV-1 Y188L mutant): > 10 nM
- EC50 (HIV-1 K103N-L100I mutant; [1]): 1 to 10 nM
- EC50 (HIV-1 K103N mutant): 1 to 10 nM
- EC50 (HIV-1 K103N-Y181C mutant): 1 to 10 nM
- EC50 (wild type HIV-1; [2]): 1 to 10 nM

Structure (SMILES): Cc1cc(-c2cc(C)c(Oc3nc(Nc4ccc(C#N)cc4)nc4ccn(C)c34)c(C)c2)ccn1 [Example 8, 4-(4-(2,6-Dimethyl-4-(2-methylpyridin-4-yl)phenoxy)-5-methyl-5H-pyrrolo[3,2-d]pyrimidin-2-ylamino) benzonitrile]
- EC50 (HIV-1 Y188L mutant): > 10 nM
- EC50 (HIV-1 K103N-L100I mutant; [1]): > 10 nM
- EC50 (HIV-1 K103N mutant): > 10 nM
- EC50 (HIV-1 K103N-Y181C mutant): > 10 nM
- EC50 (wild type HIV-1; [2]): 1 to 10 nM

Structure (SMILES): Cc1cc(-c2cccc(C#N)c2)cc(C)c1Oc1nc(Nc2ccc(C#N)cc2)nc2ccn(C)c12 [Example 16, 4′-(2-(4-Cyanophenylamino)-5-methyl-5H-pyrrolo[3,2-d]pyrimidin-4-yloxy)-3′,5′-dimethylbiphenyl-3-carbonitrile]
- EC50 (HIV-1 Y188L mutant): > 10 nM
- EC50 (HIV-1 K103N-L100I mutant; [1]): > 10 nM
- EC50 (HIV-1 K103N mutant): > 10 nM
- EC50 (HIV-1 K103N-Y181C mutant): > 10 nM
- EC50 (wild type HIV-1; [2]): 1 to 10 nM

Structure (SMILES): Cc1cc(-c2cccc(C#N)n2)cc(C)c1Oc1nc(Nc2ccc(C#N)cc2)nc2ccn(C)c12 [Example 17, 6-(4-(2-(4-Cyanophenylamino)-5-methyl-5H-pyrrolo[3,2-d]pyrimidin-4-yloxy)-3,5-dimethylphenyl)picolinonitrile]
- EC50 (HIV-1 Y188L mutant): > 10 nM
- EC50 (HIV-1 K103N-L100I mutant; [1]): 1 to 10 nM
- EC50 (HIV-1 K103N mutant): 1 to 10 nM
- EC50 (HIV-1 K103N-Y181C mutant): > 10 nM
- EC50 (wild type HIV-1; [2]): 1 to 10 nM

Structure (SMILES): Cc1cc(-c2cn[nH]c2)cc(C)c1Oc1nc(Nc2ccc(C#N)cc2)nc2ccn(C)c12 [Example 24, 4-(4-(2,6-Dimethyl-4-(1H-pyrazol-4-yl)phenoxy)-5-methyl-5H-pyrrolo[3,2-d]pyrimidin-2-ylamino)-benzonitrile]
- EC50 (HIV-1 Y188L mutant): 1 to 10 nM
- EC50 (HIV-1 K103N-L100I mutant; [1]): 1 to 10 nM
- EC50 (HIV-1 K103N mutant): 1 to 10 nM
- EC50 (HIV-1 K103N-Y181C mutant): > 10 nM
- EC50 (wild type HIV-1; [2]): < 1 nM

Structure (SMILES): Cc1cc(-c2ccncc2)cc(C)c1Oc1nc(Nc2ccc(C#N)cc2)nc2nc[nH]c12 [Example 29, 4-(6-(2,6-Dimethyl-4-(pyridin-4-yl)phenoxy)-7H-purin-2-ylamino)benzonitrile]
- EC50 (HIV-1 Y188L mutant): 1 to 10 nM
- EC50 (HIV-1 K103N-L100I mutant; [1]): 1 to 10 nM
- EC50 (HIV-1 K103N mutant): < 1 nM
- EC50 (HIV-1 K103N-Y181C mutant): 1 to 10 nM
- EC50 (wild type HIV-1; [2]): < 1 nM

Structure (SMILES): Cc1cc(-c2ccc(C(N)=O)cc2)cc(C)c1Oc1nc(Nc2ccc(C#N)cc2)nc2nc[nH]c12 [Example 45, 4′-(2-(4-Cyanophenylamino)-7H-purin-6-yloxy)-3′,5′-dimethylbiphenyl-4-carboxamide]
- EC50 (HIV-1 Y188L mutant): 1 to 10 nM
- EC50 (HIV-1 K103N-L100I mutant; [1]): 1 to 10 nM
- EC50 (HIV-1 K103N mutant): 1 to 10 nM
- EC50 (HIV-1 K103N-Y181C mutant): 1 to 10 nM
- EC50 (wild type HIV-1; [2]): < 1 nM

Structure (SMILES): Cc1cc(-c2ccc(S(N)(=O)=O)cc2)cc(C)c1Oc1nc(Nc2ccc(C#N)cc2)nc2nc[nH]c12 [Example 46, 4′-(2-(4-Cyanophenylamino)-7H-purin-6-yloxy)-3′,5′-dimethylbiphenyl-4-sulfonamide]
- EC50 (HIV-1 Y188L mutant): > 10 nM
- EC50 (HIV-1 K103N-L100I mutant; [1]): > 10 nM
- EC50 (HIV-1 K103N mutant): 1 to 10 nM
- EC50 (HIV-1 K103N-Y181C mutant): 1 to 10 nM
- EC50 (wild type HIV-1; [2]): 1 to 10 nM

Structure (SMILES): Cc1cc(-c2ccc(C(N)=O)cc2F)cc(C)c1Oc1nc(Nc2ccc(C#N)cc2)nc2ccn(C)c12 [Example 50, 4′-(2-(4-Cyanophenylamino)-5-methyl-5H-pyrrolo[3,2-d]pyrimidin-4-yloxy)-2-fluoro-3′,5′-dimethylbiphenyl-4-carboxamide]
- EC50 (HIV-1 Y188L mutant): > 10 nM
- EC50 (HIV-1 K103N-L100I mutant; [1]): 1 to 10 nM
- EC50 (HIV-1 K103N mutant): 1 to 10 nM
- EC50 (HIV-1 K103N-Y181C mutant): 1 to 10 nM
- EC50 (wild type HIV-1; [2]): 1 to 10 nM

Structure (SMILES): Cc1cc(-c2ccc(S(N)(=O)=O)cc2)cc(C)c1Oc1nc(Nc2ccc(C#N)cc2)nc2ncn(C)c12 [Example 53, 4′-(2-(4-Cyanophenylamino)-7-methyl-7H-purin-6-yloxy)-3′,5′-dimethylbiphenyl-4-sulfonamide]
- EC50 (HIV-1 Y188L mutant): > 10 nM
- EC50 (HIV-1 K103N-L100I mutant; [1]): 1 to 10 nM
- EC50 (HIV-1 K103N mutant): 1 to 10 nM
- EC50 (HIV-1 K103N-Y181C mutant): 1 to 10 nM
- EC50 (wild type HIV-1; [2]): 1 to 10 nM

Structure (SMILES): Cc1cc(-c2ccc(C(N)=O)cn2)cc(C)c1Oc1nc(Nc2ccc(C#N)cc2)nc2ccn(C)c12 [Example 61, 6-(4-(2-(4-Cyanophenylamino)-5-methyl-5H-pyrrolo[3,2-d]pyrimidin-4-yloxy)-3,5-dimethyl-phenyl)nicotinamide]
- EC50 (HIV-1 Y188L mutant): 1 to 10 nM
- EC50 (HIV-1 K103N-L100I mutant; [1]): 1 to 10 nM
- EC50 (HIV-1 K103N mutant): 1 to 10 nM
- EC50 (HIV-1 K103N-Y181C mutant): > 10 nM
- EC50 (wild type HIV-1; [2]): 1 to 10 nM

Structure (SMILES): Cc1cc(-c2ccc(C(N)=O)cc2)cc(C)c1Oc1nc(Nc2ccc(C#N)cc2)nc2ccn(C)c12 [Example 78, 4′-(2-(4-cyanophenylamino)-5-methyl-5H-pyrrolo[3,2-d]pyrimidin-4-yloxy)-3′,5′-dimethylbiphenyl-4-carboxamide]
- EC50 (HIV-1 Y188L mutant): 1 to 10 nM
- EC50 (HIV-1 K103N-L100I mutant; [1]): 1 to 10 nM
- EC50 (HIV-1 K103N mutant): 1 to 10 nM
- EC50 (HIV-1 K103N-Y181C mutant): 1 to 10 nM
- EC50 (wild type HIV-1; [2]): 1 to 10 nM

Structure (SMILES): Cc1cc(-c2ccc(C(N)=O)cc2)cc(C)c1Oc1nc(Nc2ccc(C#N)cc2)nc2ncn(C)c12 [Example 111, 4′-(2-(4-Cyanophenylamino)-7-methyl-7H-purin-6-yloxy)-3′,5′-dimethylbiphenyl-4-carboxamide]
- EC50 (HIV-1 Y188L mutant): > 10 nM
- EC50 (HIV-1 K103N-L100I mutant; [1]): 1 to 10 nM
- EC50 (HIV-1 K103N mutant): 1 to 10 nM
- EC50 (HIV-1 K103N-Y181C mutant): > 10 nM
- EC50 (wild type HIV-1; [2]): 1 to 10 nM

Structure (SMILES): Cc1cc(-c2ccc(C(N)=O)cn2)cc(C)c1Oc1nc(Nc2ccc(C#N)cc2)nc2ncn(C)c12 [Example 123, 6-(4-(2-(4-cyanophenylamino)-7-methyl-7H-purin-6-yloxy)-3,5-dimethylphenyl)nicotinamide]
- EC50 (HIV-1 Y188L mutant): 1 to 10 nM
- EC50 (HIV-1 K103N-L100I mutant; [1]): > 10 nM
- EC50 (HIV-1 K103N mutant): 1 to 10 nM
- EC50 (HIV-1 K103N-Y181C mutant): > 10 nM
- EC50 (wild type HIV-1; [2]): 1 to 10 nM
